Test results as given in patent publication US20210298305A1, “USE OF A DIFLUORO-(2-HYDROXYPROPYL)PYRIDINE COMPOUND AS A FUNGICIDE FOR CONTROL OF PHYTOPATHOGENIC FUNGI OF WHEAT” (Dow AgroSciences LLC, priority 2016, published 2021).

How the values were obtained:
[1] = tested on: Puccinia recondita (PUCCRT); test: Field assessment of brown rust in spring wheat (curative tests); assay type: in vivo; details: for Test A % Control (based on AUDPC): early curative; for Test B % Control (based on AUDPC): late curative
[2] = tested on: mixture of Fusarium graminearum and Fusarium culmorum isolates; assay type: in vivo; details: 100 g ai/ha, with Agnique BP-420
[3] = tested on: Parastagonospora nodorum (LEPTNO); test: Field assessment of glume blotch in spring wheat (protectant and curative); assay type: in vivo; details: for 2 DC percent control based on AUDPC: 2 Day curative; for 3 DP percent control based on AUDPC: 3 Day protectant
Description: A fungicidal treatment containing Compound I, sprayed alone in an EC formulation […] and tank mixed with an adjuvant (Agnique BP-420, 50% w/w at 0.3% v/v), was applied at B37-39 growth stage of spring wheat ([…] variety) for protectant tests at rates of 25, 50, 100 and 150 g ai/ha. After three days, the wheat plants were artificially inoculated with Parastagonospora nodorum at B39 growth stage of wheat. Compound I was then applied two days later (same rates and formulations) to the plants at B39-41 growth stage of wheat (2 day curative test).

[4] = tested on: Blumeria graminis f. sp. tritici (ERYSGT); test: Field assessment of powdery mildew in Durum wheat, three trials; assay type: in vivo
[5] = tested on: Puccinia striiformis (PUCCST); test: Field assessment of yellow (stripe) rust in winter wheat, three curative trials; details: tank mix with Trycol 5941
Description: A fungicidal treatment containing Compound I was assessed against yellow rust of wheat (PUCCST) in three separate field trials. In each trial, all Compound I treatments were applied in a tank mix with Trycol 5941 (50% w/w) at 0.2% v/v as an adjuvant. […] The treatment was part of an experimental trial designed as a randomized complete block with four replications and a plot of approximately 1×2 m. Treatments were applied at water volume of 200 L/ha, using a backpack plot sprayer (BKPCKAIR, 1 m band width, FLATFAN F110-03 Lurmark nozzle) and pressurized at 180 kPa. Disease severity (% visual infection) was assessed 4 times on leaf 1 (L1, flag leaf, 33-47 DAA) and 5 times on leaf 2 (L2, 27-54 DAA).
The treatment was part of an experimental trial designed as a randomized complete block with four replications and a plot of approximately 2×3 m. Treatments were applied at water volume of 200 L/ha, using a backpack precision plot sprayer (BKCKENG, 2 m band width, FFA110-015 Hardi nozzle) and pressurized at 200 kPa. Disease severity (% visual infection) was assessed following application A one time on leaf 2 (23 DAA). Following application B, disease severity was assessed 4 times on leaf 1 (11-45 DAA) and 3 times on leaf 2 (11-31 DAA).
The treatment was part of an experimental trial designed as a randomized complete block with four replications and a plot of approximately 2×3 m. Treatments were applied at water volume of 150 L/ha, using a backpack precision plot sprayer ([sequence], 2 m band width, FLAT FAN FF015 nozzle). Disease severity (% visual infection) was assessed 3 times on leaf 1 (47-68 DAA) and 4 times on leaf 2 (36-68 DAA).
Disease severity (percentage of visual diseased foliage on whole plot or leaves) in all three field trials was recorded following EPPO PP1/26 guideline prescriptions. Area under the disease progress curve (AUDPC) was calculated for each plot in each of the three trials using the sets of recorded severity data. Relative AUDPC (% control based on AUDPC) was calculated as percent of the nontreated control.

[6] = 25 g ai/ha, with adjuvant Agnique BP-420
[7] = 50 g ai/ha, with adjuvant Agnique BP-420
[8] = 100 g ai/ha, with adjuvant Agnique BP-420
[9] = 150 g ai/ha, with adjuvant Agnique BP-420

## N#Cc1ccc(Oc2ccc(C(F)(F)C(O)(Cn3ncnc3S)c3ccc(F)cc3F)nc2)cc1 (stereo not shown) [Compound I, 4-((6-(2-(2,4-difluorophenyl)-1,1-difluoro-2-hydroxy-3-(5-mercapto-1H-1,2,4-triazol-1-yl)propyl)pyridin-3-yl)oxy)benzonitrile]
[1]; [6]
  Test A % Control (based on AUDPC): A (76-100)
  Test B % Control (based on AUDPC): B (51-75)
[1]; 50 g ai/ha, no adjuvant
  Test A % Control (based on AUDPC): A (76-100)
  Test B % Control (based on AUDPC): A (76-100)
[1]; [7]
  Test A % Control (based on AUDPC): A (76-100)
  Test B % Control (based on AUDPC): A (76-100)
[1]; 100 g ai/ha, no adjuvant
  Test A % Control (based on AUDPC): A (76-100)
  Test B % Control (based on AUDPC): A (76-100)
[1]; [8]
  Test A % Control (based on AUDPC): A (76-100)
  Test B % Control (based on AUDPC): A (76-100)
[1]; [9]
  Test A % Control (based on AUDPC): A (76-100)
  Test B % Control (based on AUDPC): A (76-100)
[2]; sprayed on heads at flowering one day before inoculation, winter wheat
  Percent Control (calculated with FHB index using incidence and % infection): B (51-75)
[2]; winter wheat crop harvest, untreated 6.0
  Yield: 8.4 t/ha
[3]; [6]
  2 DC percent control based on AUDPC: C (26-50)
  3 DP percent control based on AUDPC: C (26-50)
[3]; 50 g ai/ha, no adjuvant
  2 DC percent control based on AUDPC: C (26-50)
  3 DP percent control based on AUDPC: C (26-50)
[3]; [7]
  2 DC percent control based on AUDPC: C (26-50)
  3 DP percent control based on AUDPC: C (26-50)
[3]; [8]
  2 DC percent control based on AUDPC: B (51-75)
  3 DP percent control based on AUDPC: B (51-75)
[3]; [9]
  2 DC percent control based on AUDPC: B (51-75)
  3 DP percent control based on AUDPC: B (51-75)
[4]; 25 g ai/ha, EC formulation, Adjuvant X (Plurafac LF 1300 EC)
  % Control (AUDPC over 3 trials): B (51-75)
[4]; 25 g ai/ha, SC formulation, Adjuvant Y (Agnique BP420 EW with Agnique FOH TDA-9)
  % Control (AUDPC over 3 trials): B (51-75)
[4]; 50 g ai/ha, EC formulation, Adjuvant X (Plurafac LF 1300 EC)
  % Control (AUDPC over 3 trials): B (51-75)
[4]; 50 g ai/ha, SC formulation, Adjuvant Y (Agnique BP420 EW with Agnique FOH TDA-9)
  % Control (AUDPC over 3 trials): B (51-75)
[4]; 75 g ai/ha, EC formulation, Adjuvant X (Plurafac LF 1300 EC)
  % Control (AUDPC over 3 trials): A (76-100)
[4]; 75 g ai/ha, SC formulation, Adjuvant Y (Agnique BP420 EW with Agnique FOH TDA-9)
  % Control (AUDPC over 3 trials): B (51-75)
[4]; 100 g ai/ha, EC formulation, Adjuvant X (Plurafac LF 1300 EC)
  % Control (AUDPC over 3 trials): A (76-100)
[4]; 100 g ai/ha, SC formulation, Adjuvant Y (Agnique BP420 EW with Agnique FOH TDA-9)
  % Control (AUDPC over 3 trials): A (76-100)
[4]; 150 g ai/ha, EC formulation, Adjuvant X (Plurafac LF 1300 EC)
  % Control (AUDPC over 3 trials): A (76-100)
[4]; 150 g ai/ha, SC formulation, Adjuvant Y (Agnique BP420 EW with Agnique FOH TDA-9)
  % Control (AUDPC over 3 trials): A (76-100)
[5]; 50 g ai/ha
  Curative Trials (% Control), AUDPC average over three trials: B (51-75)
[5]; 100 g ai/ha
  Curative Trials (% Control), AUDPC average over three trials: B (51-75)
[5]; 150 g ai/ha
  Curative Trials (% Control), AUDPC average over three trials: B (51-75)
